Source: US11345666B2, “Phenyl and pyridinyl substituted imidazoles as modulators of RORγT” (Janssen Pharmaceutica NV, priority 2018, dated 2022)

Legend:
[1] = biological target: human RORγt ligand binding domain (RORγt LBD) (Homo sapiens (Human), UniProt P51449); assay: RORγt ThermoFluor assay
In short: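 Thermal shift of His-tagged human RORγt LBD (0.065 mg/mL) with 60 μM 1,8-ANS in 100 mM Hepes pH 7.0, 10 mM NaCl, 2.5 mM GSH, 0.002% Tween-20, heated at 1° C./min. Compounds in 1:2 series from a 10 mM DMSO stock; KD estimated from ΔTm using protein unfolding thermodynamics.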

full-length human RORγt = full-length human RORγt (Homo sapiens (Human), UniProt P51449); assay: RORγt (full-length human) reporter assay, conditions A or B; type: cell-based; settings: for IC50: HEK293T cells, read-out: RORγt (FL) Reporter Assay A or B, IC50; for inhibition at 6 µM: read-out: RORγt (FL) Reporter Assay A or B, % inhibition @ 6 μM, 6 μM compound concentration; for inhibition at 3 µM: 3 μM compound concentration (*); for inhibition at 3 µM / inhibition at 2 µM: read-out: RORγt (FL) Reporter Assay A or B, % inhibition; for inhibition at 2 µM: 2 μM compound concentration (**)
In short: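 HEK293T cells transiently co-transfected (PEI) with GAL4-DBD–RORγt, GAL4-firefly luciferase and CMV-Renilla reporters; condition A 35,000 cells/well, 170.5 ng DNA/well; condition B 8750 cells/well, 42.6 ng DNA/well.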

human RORγt ligand binding domain (RORγt LBD), sequence (P51449 other isoform, or with tags, fused parts or gaps): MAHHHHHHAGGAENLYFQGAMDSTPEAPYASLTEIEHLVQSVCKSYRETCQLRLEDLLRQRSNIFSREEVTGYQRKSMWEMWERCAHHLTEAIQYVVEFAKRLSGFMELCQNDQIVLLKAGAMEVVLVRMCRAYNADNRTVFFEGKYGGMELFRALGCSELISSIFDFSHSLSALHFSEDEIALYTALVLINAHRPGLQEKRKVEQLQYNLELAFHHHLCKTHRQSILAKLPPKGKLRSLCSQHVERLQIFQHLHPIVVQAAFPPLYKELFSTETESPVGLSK
full-length human RORγt, sequence (P51449 other isoform, or with tags, fused parts or gaps): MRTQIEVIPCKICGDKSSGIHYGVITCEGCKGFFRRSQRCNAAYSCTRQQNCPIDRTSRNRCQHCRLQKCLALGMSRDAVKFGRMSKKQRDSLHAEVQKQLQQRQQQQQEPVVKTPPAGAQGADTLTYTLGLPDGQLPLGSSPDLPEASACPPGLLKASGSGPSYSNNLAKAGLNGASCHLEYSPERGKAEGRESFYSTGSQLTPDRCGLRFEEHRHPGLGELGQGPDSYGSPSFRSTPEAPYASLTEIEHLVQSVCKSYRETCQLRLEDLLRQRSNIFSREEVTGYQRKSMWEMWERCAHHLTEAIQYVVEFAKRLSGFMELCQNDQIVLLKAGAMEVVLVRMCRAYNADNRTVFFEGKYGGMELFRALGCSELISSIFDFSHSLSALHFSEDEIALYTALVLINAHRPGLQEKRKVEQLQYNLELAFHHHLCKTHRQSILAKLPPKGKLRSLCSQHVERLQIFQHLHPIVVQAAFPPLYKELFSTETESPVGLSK

Kd [1] [nM]	IC50 (full-length human RORγt) [nM]	inhibition at 6 µM (full-length human RORγt) [%]	inhibition at 3 µM (full-length human RORγt) [%]	inhibition at 2 µM (full-length human RORγt) [%]	SMILES
34	190		86		CCc1nc(C(=O)NC[C@]2(O)CC[C@@H](S(C)(=O)=O)C[C@H]2O)c(Cl)n1-c1ncc(CC(C)(C)C(F)(F)F)cc1OC(F)F (stereo in doubt) [Example 60, 5-Chloro-1-(3-(difluoromethoxy)-5-(3,3,3-trifluoro-2,2-dimethylpropyl)pyridin-2-yl)-N-(((1R*,2R*,4R*)-1,2-dihydroxy-4-(methylsulfonyl)cyclohexyl)methyl)-2-ethyl-1H-imidazole-4-carboxamide]
46	110		90		CCc1nc(C(=O)NC[C@@]2(O)CC[C@H](S(C)(=O)=O)C[C@@H]2O)c(Cl)n1-c1ncc(CC(C)(C)C(F)(F)F)cc1OC(F)F (stereo in doubt) [Example 61, 5-Chloro-1-(3-(difluoromethoxy)-5-(3,3,3-trifluoro-2,2-dimethylpropyl)pyridin-2-yl)-N-(((1S*,2S*,4S*)-1,2-dihydroxy-4-(methylsulfonyl)cyclohexyl)methyl)-2-ethyl-1H-imidazole-4-carboxamide]
35	210		101		CCc1nc(C(=O)NC[C@H]2CC[C@H](S(C)(=O)=O)C[C@@H]2O)c(Cl)n1-c1ncc(CC(C(F)(F)F)C(F)(F)F)cc1OC(F)F (stereo in doubt) [Example 64, 5-Chloro-1-(3-(difluoromethoxy)-5-(3,3,3-trifluoro-2-(trifluoromethyl)propyl)pyridin-2-yl)-2-ethyl-N-(((1R*,2S*,4S*)-2-hydroxy-4-(methylsulfonyl)cyclohexyl)methyl)-H-imidazole-4-carboxamide]
28	110		105		CCc1nc(C(=O)NC[C@@H]2CC[C@@H](S(C)(=O)=O)C[C@H]2O)c(Cl)n1-c1ncc(CC(C(F)(F)F)C(F)(F)F)cc1OC(F)F (stereo in doubt) [Example 65, 5-Chloro-1-(3-(difluoromethoxy)-5-(3,3,3-trifluoro-2-(trifluoromethyl)propyl)pyridin-2-yl)-2-ethyl-N-(((1S*,2R*,4R*)-2-hydroxy-4-(methylsulfonyl)cyclohexyl)methyl)-1H-imidazole-4-carboxamide]
73	790		70		CCc1nc(C(=O)NC[C@@]2(O)CC[C@H](S(C)(=O)=O)C[C@@H]2O)c(Cl)n1-c1ncc(CC(C(F)(F)F)C(F)(F)F)cc1OC(F)F (stereo in doubt) [Example 66, 5-Chloro-1-(3-(difluoromethoxy)-5-(3,3,3-trifluoro-2-(trifluoromethyl)propyl)pyridin-2-yl)-N-(((1S*,2S*,4S*)-1,2-dihydroxy-4-(methylsulfonyl)cyclohexyl)methyl)-2-ethyl-1H-imidazole-4-carboxamide]
53	170		103		CCc1nc(C(=O)NC[C@]2(O)CC[C@@H](S(C)(=O)=O)C[C@H]2O)c(Cl)n1-c1ncc(CC(C(F)(F)F)C(F)(F)F)cc1OC(F)F (stereo in doubt) [Example 67, 5-Chloro-1-(3-(difluoromethoxy)-5-(3,3,3-trifluoro-2-(trifluoromethyl)propyl)pyridin-2-yl)-N-(((1R*,2R*,4R*)-1,2-dihydroxy-4-(methylsulfonyl)cyclohexyl)methyl)-2-ethyl-1H-imidazole-4-carboxamide]

The remaining lines, values behind:

SMILES	Kd [1] [nM]	IC50 (full-length human RORγt) [nM]	inhibition at 6 µM (full-length human RORγt) [%]	inhibition at 3 µM (full-length human RORγt) [%]	inhibition at 2 µM (full-length human RORγt) [%]
CCc1nc(C(=O)NC[C@]2(O)CC[C@@H](S(C)(=O)=O)CC2)c(Cl)n1-c1ccc(CC(C)C)cc1OC (single isomer, unassigned) [Example 92, 5-Chloro-2-ethyl-N-(((1s,4S)-1-hydroxy-4-(methylsulfonyl)cyclohexyl)methyl)-1-((R*)-4-isobutyl-2-methoxyphenyl)-1H-imidazole-4-carboxamide]	0.28	7	72		
CCc1nc(C(=O)NC[C@]2(O)CC[C@@H](S(C)(=O)=O)CC2)c(C#N)n1-c1ccc(CC(C)C(F)(F)F)cc1OC (stereo partly drawn) [Example 1, 5-Cyano-2-ethyl-N-(((1s,4s)-1-hydroxy-4-(methylsulfonyl)cyclohexyl)methyl)-1-(2-methoxy-4-(3,3,3-trifluoro-2-methylpropyl)phenyl)-1H-imidazole-4-carboxamide]	4.6	40			103
CCc1nc(C(=O)NC[C@H]2CC[C@@H](S(C)(=O)=O)CC2)c(Cl)n1-c1ccc(N[C@H](C)C(F)(F)F)cc1OC [Example 4, 5-Chloro-2-ethyl-1-(2-methoxy-4-(((R)-1,1,1-trifluoropropan-2-yl)amino)phenyl)-N-(((1s,4S)-4-(methylsulfonyl)cyclohexyl)methyl)-1H-imidazole-4-carboxamide]	470	350			87
COc1cc(N[C@H](C)C(F)(F)F)ccc1-n1c(CC(C)C)nc(C(=O)NC[C@H]2CC[C@H](S(C)(=O)=O)CC2)c1Cl [Example 9, 5-Chloro-2-isobutyl-1-(2-methoxy-4-(((R)-1,1,1-trifluoropropan-2-yl)amino)phenyl)-N-(((1r,4R)-4-(methylsulfonyl)cyclohexyl)methyl)-1H-imidazole-4-carboxamide]	2.6	35	101		
COc1cc(N[C@H](C)C(F)(F)F)ccc1-n1c(C(C)(C)C)nc(C(=O)NC[C@H]2CC[C@H](S(C)(=O)=O)CC2)c1Cl [Example 10, 2-(tert-Butyl)-5-chloro-1-(2-methoxy-4-(((R)-1,1,1-trifluoropropan-2-yl)amino)phenyl)-N-(((1r,4R)-4-(methylsulfonyl)cyclohexyl)methyl)-1H-imidazole-4-carboxamide]	6.1	57			104
CCCc1nc(C(=O)NC[C@H]2CC[C@H](S(C)(=O)=O)CC2)c(Cl)n1-c1ccc(N[C@H](C)C(F)(F)F)cc1OC [Example 11, 5-Chloro-1-(2-methoxy-4-(((R)-1,1,1-trifluoropropan-2-yl)amino)phenyl)-N-(((1r,4R)-4-(methylsulfonyl)cyclohexyl)methyl)-2-propyl-1H-imidazole-4-carboxamide]	1	39	102		
CCc1nc(C(=O)NC[C@H]2CC[C@H](S(C)(=O)=O)CC2)c(F)n1-c1ccc(CCC(F)(F)F)cc1OC [Example 13, 2-Ethyl-5-fluoro-1-(2-methoxy-4-(3,3,3-trifluoropropyl)phenyl)-N-(((1r,4r)-4-(methylsulfonyl)cyclohexyl)methyl)-1H-imidazole-4-carboxamide]	25	140	95		
CCc1nc(C(=O)NC[C@]2(O)CC[C@@H](S(C)(=O)=O)CC2)c(F)n1-c1ccc(CCC(F)(F)F)cc1OC [Example 14, 2-Ethyl-5-fluoro-N-(((1s,4s)-1-hydroxy-4-(methylsulfonyl)cyclohexyl)methyl)-1-(2-methoxy-4-(3,3,3-trifluoropropyl)phenyl)-1H-imidazole-4-carboxamide]	83	320	83		
CCc1nc(C(=O)NC[C@H]2CC[C@H](S(C)(=O)=O)CC2)c(F)n1-c1ccc(CC(C)C(F)(F)F)cc1OC (stereo partly drawn) [Example 15, 2-Ethyl-5-fluoro-1-(2-methoxy-4-(3,3,3-trifluoro-2-methylpropyl)phenyl)-N-(((1r,4r)-4-(methylsulfonyl)cyclohexyl)methyl)-1H-imidazole-4-carboxamide]	3.9	55	103		
CCc1nc(C(=O)NC[C@H]2CC[C@H](S(C)(=O)=O)CC2)c(C#N)n1-c1ccc(CC(C)C(F)(F)F)cc1OC (stereo partly drawn) [Example 16, 5-Cyano-2-ethyl-1-(2-methoxy-4-(3,3,3-trifluoro-2-methylpropyl)phenyl)-N-(((1r,4r)-4-(methylsulfonyl)cyclohexyl)methyl)-1H-imidazole-4-carboxamide]	1.3	16			103
CCc1nc(C(=O)NC[C@H]2CC[C@H](S(C)(=O)=O)CC2)c(C#N)n1-c1ccc(CCC(F)(F)F)cc1OC [Example 21, 5-Cyano-2-ethyl-1-(2-methoxy-4-(3,3,3-trifluoropropyl)phenyl)-N-(((1r,4r)-4-(methylsulfonyl)cyclohexyl)methyl)-1H-imidazole-4-carboxamide]	14	94	101		
CCc1nc(C(=O)NC[C@]2(O)CC[C@@H](S(C)(=O)=O)CC2)c(Cl)n1-c1ccc(CCC(F)(F)F)cc1F [Example 23, 5-Chloro-2-ethyl-1-(2-fluoro-4-(3,3,3-trifluoropropyl)phenyl)-N-(((1s,4s)-1-hydroxy-4-(methylsulfonyl)cyclohexyl)methyl)-1H-imidazole-4-carboxamide]	49	37	41		
CCc1nc(C(=O)NC[C@]2(O)CC[C@@H](S(C)(=O)=O)CC2)c(C#N)n1-c1ccc(CC(C)(C)C(F)(F)F)cc1OC(F)F [Example 24, 5-Cyano-1-(2-(difluoromethoxy)-4-(3,3,3-trifluoro-2,2-dimethylpropyl)phenyl)-2-ethyl-N-(((1s,4s)-1-hydroxy-4-(methylsulfonyl)cyclohexyl)methyl)-1H-imidazole-4-carboxamide]	5.3	33	104		
